Reference: patent US20250186456A1, “PYRIMIDINE-FUSED CYCLIC COMPOUND AND PREPARATION METHOD AND USE THEREOF” (Genfleet Therapeutics (Shanghai) Inc., priority 2021, published 2025)
Like-named read-outs stand apart in the source and are kept apart here.

How the values were obtained:
Type in all cases: cell-based, human
[1] = test system: p-ERK in AGS cells (KRAS G12D mutation); experiment: Cell p-ERK assay (HTRF, Advance ERK phospho-T202/Y204 kit); conditions: AGS cells, 3 hours incubation with compound, HTRF, read-out: AGS p-ERK IC50
How it was run: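 AGS cells (endogenous KRAS G12D) seeded at ~20000 cells/well overnight, then treated 3 h with 3.16-fold compound dilutions, 0.1% DMSO final. Lysates assayed for phospho-T202/Y204 ERK by HTRF after 4 h antibody incubation; inhibition vs DMSO and blank, IC50 by four-parameter fit.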

[2] = test system: AGS cells (KRAS G12D); experiment: Cell proliferation inhibition assay, 3D, CellTiter-Glo 3D, AGS; conditions: AGS 3D sphere model, 5 days incubation
How it was run: (§1)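 Spheroids (800 AsPC-1 or 400 AGS cells/well; RPMI-1640 or F-12K with 10% FBS) formed overnight, then were dosed on day 2 with a 3.16-fold series at 0.1% DMSO. After 5 days, viability was read by CellTiter-Glo 3D luminescence, and IC50 came from four-parameter fits of inhibition versus DMSO control and medium blank.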

[3] = test system: AsPC-1 cells (KRAS G12D mutation); experiment: Cell proliferation inhibition assay, 3D, CellTiter-Glo 3D, AsPC-1; conditions: AsPC-1 3D sphere model, 5 days incubation
How it was run: as §1

IC50 [1] [nM] | IC50 [2] [nM] | IC50 [3] [nM] | Compound | IC50 ([1]; Homo sapiens) [nM] | IC50 ([2]; Homo sapiens, 120 h) [nM] | IC50 ([3]; Homo sapiens, ASPC1, 120 h) [nM]
– | – | – | C#Cc1c(F)ccc2cccc(-c3nc4c5c(nc(OCC67CCCN6CCC7=C(F)F)nc5c3F)N3C[C@H]5CC[C@H](N5)[C@H]3[C@H](C)O4)c12 (stereo partly drawn) [Example Z612, (5S,5aS,6S,9R)-12-((1-(difluoromethylene)tetrahydro-1H-pyrrolizin-7a (5H)-yl)methoxy)-2-(8-ethynyl-7-fluoronaphthalen-1-yl)-1-fluoro-5-methyl-5a,6,7,8,9,10-hexahydro-5H-4-oxa-3,10a, 11,13,14-pentaaza-6,9-methanonaphtho[1,8-ab]heptalene] | 99.3 | 65.4 | 124
– | – | – | C#Cc1c(F)ccc2cccc(-c3nc4c5c(nc(OCC67CCCN6[C@@H]6C[C@@H]6C7)nc5c3F)N3C[C@H]5CC[C@H](N5)[C@H]3[C@H](C)O4)c12 (stereo partly drawn) [Example Z624, (5S,5aS,6S,9R)-2-(8-ethynyl-7-fluoronaphthalen-1-yl)-1-fluoro-12-(((1aR,6aR)-hexahydrocyclopropa[b]pyrrolizin-5a (3H)-yl)methoxy)-5-methyl-5a,6,7,8,9,10-hexahydro-5H-4-oxa-3,10a, 11, 13, 14-pentaaza-6,9-methanonaphtho[1,8-ab]heptalene] | 47.3 | 88.2 | 194
81.9 | 107 | 405 | C#Cc1c(F)ccc2cccc(-c3nc4c5c(nc(OCC67CCCN6[C@H]6C[C@H]6C7)nc5c3F)N3C[C@H]5CC[C@H](N5)[C@H]3[C@H](C)O4)c12 (stereo partly drawn) [Example Z625, (5S,5aS,6S,9R)-2-(8-Ethynyl-7-Fluoronaphthalen-1-Yl)-1-Fluoro-12-(((1aS,6aS)-Hexahydrocyclopropa[b]Pyrrolizin-Sa (3H)-Yl)Methoxy)-5-Methyl-5a,6,7,8,9,10-Hexahydro-5H-4-Oxa-3,10a,11,13,14-Pentaaza-6,9-Methanonaphtho[1,8-Ab]Heptalene] | – | – | –
– | – | – | C#Cc1c(F)ccc2cccc(-c3nc4c5c(nc(OCC67CC8(CC8)CN6CC6(CC6)C7)nc5c3F)N3C[C@H]5CC[C@H](N5)[C@H]3[C@H](C)O4)c12 [Example Z628] | 45.5 | 40 | 144
– | – | – | C#Cc1c(F)ccc2cccc(-c3nc4c5c(nc(OCC67CC(=C)CN6CC(=C)C7)nc5c3F)N3C[C@H]5CC[C@H](N5)[C@H]3CCO4)c12 [Example Z629] | 50 | 51.7 | 167
– | – | – | C#Cc1c(F)ccc2cccc(-c3nc4c5c(nc(OCC67CCCN6C6(CC6)CC7)nc5c3F)N3C[C@H]5CC[C@H](N5)[C@H]3[C@H](C)O4)c12 (stereo partly drawn) [Example Z631, (5S,5aS,6S,9R)-2-(8-Ethynyl-7-Fluoronaphthalen-1-Yl)-1-Fluoro-5-Methyl-12-((Tetrahydrospiro[Cyclopropane-1,3′-Pyrrolizin]-7a′ (5′H)-Yl)Methoxy)-5a,6,7,8,9,10-Hexahydro-5H-4-Oxa-3,10a,11,13,14-Pentaaza-6,9-Methanonaphtho[1,8-Ab]Heptalene] | 91.9 | 201 | 254
– | – | – | C#Cc1c(F)ccc2cccc(-c3nc4c5c(nc(OC[C@@]67CCCN6C[C@H](F)C7)nc5c3F)N3C[C@H]5CC[C@H](N5)[C@H]3[C@H](C)O4)c12 [Example Z632, (5S,5aS,6S,9R)-2-(8-Ethynyl-7-Fluoronaphthalen-1-Yl)-1-Fluoro-12-(((2R,7aS)-2-Fluorotetrahydro-1H-Pyrrolizin-7a (5H)-Yl)Methoxy)-5-Methyl-5a,6,7,8,9,10-Hexahydro-5H-4-Oxa-3,10a,11,13,14-Pentaaza-6,9-Methanonaphtho[1,8-Ab]Heptalene] | 30.4 | 26.2 | 53.8
– | – | – | C#Cc1c(F)ccc2cccc(-c3nc4c5c(nc(OCC67CC(=C)CN6C[C@H](F)C7)nc5c3F)N3C[C@H]5CC[C@H](N5)[C@H]3[C@H](C)O4)c12 (stereo partly drawn) [Example Z633, (5S,5aS,6S,9R)-2-(8-ethynyl-7-fluoronaphthalen-1-yl)-1-fluoro-12-(((2R)-2-fluoro-6-methylenetetrahydro-1H-pyrrolizin-7a (5H)-yl)methoxy)-5-methyl-5a,6,7,8,9,10-hexahydro-5H-4-oxa-3,10a,11,13,14-pentaaza-6,9-methanonaphtho[1,8-ab]heptalene] | 14.5 | 59 | 56.7
– | – | – | C#Cc1c(F)ccc2cccc(-c3nc4c5c(nc(OCC67CC8CC8N6CCC7=C)nc5c3F)N3C[C@H]5CC[C@H](N5)[C@H]3[C@H](C)O4)c12 (stereo partly drawn) [Example Z635, (5S,5aS,6S,9R)-2-(8-ethynyl-7-fluoronaphthalen-1-yl)-1-fluoro-5-methyl-12-((5-methylenehexahydrocyclopropa[b]pyrrolizin-5a (3H)-yl)methoxy)-5a,6,7,8,9,10-hexahydro-5H-4-oxa-3,10a, 11,13,14-pentaaza-6,9-methanonaphtho[1,8-ab]heptalene] | 50 | 224 | 218
– | – | – | C#Cc1c(F)ccc2cccc(-c3nc4c5c(nc(OC[C@@]67CCCN6CC(=C)C7)nc5c3F)N3C[C@H]5CC[C@H](N5)[C@H]3[C@H](C)O4)c12 [Example Z637, (5S,5aS,6S,9R)-2-(8-ethynyl-7-fluoronaphthalen-1-yl)-1-fluoro-5-methyl-12-(((S)-2-methylenetetrahydro-1H-pyrrolizin-7a (5H)-yl)methoxy)-5a,6,7,8,9,10-hexahydro-5H-4-oxa-3,10a,11,13,14-pentaaza-6,9-methanonaphtho[1,8-ab]heptalene] | 48.8 | 67.6 | 112
– | – | – | C#Cc1c(F)ccc2cccc(-c3nc4c5c(nc(OC[C@@]67CCCN6CCC7=C)nc5c3F)N3C[C@H]5CC[C@H](N5)[C@H]3[C@H](C)O4)c12 [Example Z639, (5S,5aS,6S,9R)-2-(8-ethynyl-7-fluoronaphthalen-1-yl)-1-fluoro-5-methyl-12-(((S)-1-methylenetetrahydro-1H-pyrrolizin-7a (5H)-yl)methoxy)-5a,6,7,8,9,10-hexahydro-5H-4-oxa-3,10a, 11, 13,14-pentaaza-6,9-methanonaphtho[1,8-ab]heptalene] | 33.4 | 113 | 93.7
14.6 | 39.1 | 53.5 | C#Cc1c(F)ccc2cccc(-c3nc4c5c(nc(OC[C@]67CCCN6CCC7=C)nc5c3F)N3C[C@H]5CC[C@H](N5)[C@H]3[C@H](C(F)F)O4)c12 [Example Z648, (5R,5aS,6S,9R)-5-(difluoromethyl)-2-(8-etbynyl-7-fluoronaphthalen-1-yl)-1-fluoro-12-(((R)-1-methylenetetrahydro-1H-pyrrolizin-7a (5H)-yl)methoxy)-5a,6,7,8,9,10-hexahydro-5H-4-oxa-3,10a, 11,13,14-pentaaza-6,9-methanonaphtho[1,8-ab]heptalene] | – | – | –
– | – | – | C#Cc1c(F)ccc2cccc(-c3nc4c5c(nc(OCC67CC(=C)CN6C[C@H](F)C7)nc5c3F)N3C[C@H]5CC[C@H](N5)[C@H]3[C@H](CO)O4)c12 (stereo partly drawn) [Example Z654, ((5R,5aS,6S,9R)-2-(8-ethynyl-7-fluoronaphthalen-1-yl)-1-fluoro-12-(((2R)-2-fluoro-6-methylenetetrahydro-1H-pyrrolizin-7a (5H)-yl)methoxy)-5a,6,7,8,9,10-hexahydro-5H-4-oxa-3,10a,11,13,14-pentaaza-6,9-methanonaphtho[1,8-ab]heptalen-5-yl)methanol] | 136 | 726 | 389
– | – | – | C#Cc1c(F)ccc2cccc(-c3nc4c5c(nc(OCC67CC(O)CN6CCC7=C)nc5c3F)N3C[C@H]5CC[C@H](N5)[C@H]3[C@H](C)O4)c12 (stereo partly drawn) [Example Z674, 7a-((((5S,5aS,6S,9R)-2-(8-ethynyl-7-fluoronaphthalen-1-yl)-1-fluoro-5-methyl-5a,6,7,8,9,10-hexahydro-5H-4-oxa-3,10a, 11, 13, 14-pentaaza-6,9-methanonaphtho[1,8-ab]heptalen-12-yl)oxy)methyl)-7-methylenehexahydro-1H-pyrrolizin-2-ol] | 10.7 | 108 | 475
– | – | – | C#Cc1c(F)ccc2cccc(-c3nc4c5c(nc(OCC67C[C@@H](F)CN6CCC7=C)nc5c3F)N3C[C@H]5CC[C@H](N5)[C@H]3[C@H](C)O4)c12 (stereo partly drawn) [Example Z675, (5S,5aS,6S,9R)-2-(8-ethynyl-7-fluoronaphthalen-1-yl)-1-fluoro-12-(((6R)-6-fluoro-1-methylenetetrahydro-1H-pyrrolizin-7a (5H)-yl)methoxy)-5-methyl-5a,6,7,8,9,10-hexahydro-5H-4-oxa-3,10a,11,13,14-pentaaza-6,9-methanonaphtho[1,8-ab]heptalene] | 11.1 | 31.2 | 31.2
– | – | – | C#Cc1cccc2cccc(-c3nc4c5c(nc(OC[C@]67CCCN6CCC7=C)nc5c3F)N3C[C@H]5CC[C@H](N5)[C@H]3[C@H](C)O4)c12 [Example Z677, (5S,5aS,6S,9R)-2-(8-ethynylnaphthalen-1-yl)-1-fluoro-5-methyl-12-(((R)-1-methylenetetrahydro-1H-pyrrolizin-7a (5H)-yl)methoxy)-5a,6,7,8,9,10-hexahydro-5H-4-oxa-3,10a,11,13,14-pentaaza-6,9-methanonaphtho[1,8-ab]heptalene] | 185 | 795 | 981
